From patent US8637550B2, “Heteroaryl diamide compounds useful as MMP-13 inhibitors” (Boehringer Ingelheim International GmbH, priority 2008, dated 2014) come the findings set out here.

Each structure is given as a SMILES string.

For the test, the target named is MMP-13 (Homo sapiens, UniProt P45452). Put plainly: EnzoLyte 520 Generic MMP Assay Kit, 5-FAM/QXL520 FRET peptide substrate. It is filed as biochemical. An excerpt:
The EnzoLyte™ 520 Generic MMP Assay Kit (AnaSpec Inc.) can detect the activity of several MMPs including MMP-1, 2, 3, 7, 8, 9, 13, and 14. This kit uses a 5-FAM/QXL™520 fluorescence resonance energy transfer (FRET) peptide as an MMP substrate.

As usually defined, the IC50 is the concentration needed to halve the response being measured. The low end stands for inhibition by little substance, the high end for a need for much substance. `COC[C@H](C)NC(=O)[C@@H](NC(=O)c1ccc(-c2ccc(NC(=O)c3cccc(C)n3)cc2)o1)C1CCCCC1` [N-[4-(5-{[(1S)-1-cyclohexyl-2-{[(2S)-1-methoxypropan-2-yl]amino}-2-oxoethyl]carbamoyl}furan-2-yl)phenyl]-6-methylpyridine-2-carboxamide] registered an IC50 of 0.032 µM. As for `Cc1cccc(C(=O)Nc2ccc(-c3ccc(C(=O)N[C@H](C(=O)NC[C@H](C)O)C4CCCCC4)o3)cc2)n1` [N-[4-(5-{[(1S)-1-cyclohexyl-2-{[(2S)-2-hydroxypropyl]amino}-2-oxoethyl]carbamoyl}furan-2-yl)phenyl]-6-methylpyridine-2-carboxamide], the figure is 0.023 µM. Compound `CNC(=O)[C@@H](NC(=O)c1ccc(-c2ccc(NC(=O)c3cccc(C)n3)cc2)o1)C1CC1` [N-[4-(5-{[(1S)-1-cyclopropyl-2-(methylamino)-2-oxoethyl]carbamoyl}furan-2-yl)phenyl]-6-methylpyridine-2-carboxamide] displayed an IC50 of 0.069 µM. `CNC(=O)[C@@H](NC(=O)c1ccc(-c2ccc(NC(=O)c3cc4ccccc4o3)cn2)o1)C1CCCCC1` [N-[6-(5-{[(1S)-1-cyclohexyl-2-(methylamino)-2-oxoethyl]carbamoyl}furan-2-yl)pyridin-3-yl]-1-benzofuran-2-carboxamide]: the IC50 was determined as 0.03 µM. As for `CNC(=O)[C@@H](NC(=O)c1ccc(-c2ccc(NC(=O)c3cccc(C)n3)cn2)o1)C1CCCCC1` [N-[6-(5-{[(1S)-1-cyclohexyl-2-(methylamino)-2-oxoethyl]carbamoyl}furan-2-yl)pyridin-3-yl]-6-methylpyridine-2-carboxamide], the figure is 0.007 µM; as for `CNC(=O)[C@@H](NC(=O)c1ccc(-c2ccc([N+](=O)[O-])cc2)o1)C1CCCCC1` [N-[(1S)-1-cyclohexyl-2-(methylamino)-2-oxoethyl)-5-(4-nitrophenyl)furan-2-carboxamide], 0.47 µM. The compound `CNC(=O)[C@@H](NC(=O)c1ccc(-c2ccc([N+](=O)[O-])cn2)o1)C1CCCCC1` [N-[(1S)-1-cyclohexyl-2-(methylamino)-2-oxoethyl)-5-(5-nitropyridin-2-yl)furan-2-carboxamide] showed an IC50 of 0.074 µM.

With `CNC(=O)[C@@H](NC(=O)c1ccc(-c2cccc(CNC(=O)C(C)C)c2)o1)C1CCCCC1` [N-[(1S)-1-cyclohexyl-2-(methylamino)-2-oxoethyl]-5-(3-{[(2-methylpropanoyl)amino]methyl}phenyl)furan-2-carboxamide], the midpoint of inhibition, the IC50, lay at 0.157 µM. As for `CNC(=O)[C@@H](NC(=O)c1ccc(-c2cccc(CNC(=O)C3CC3)c2)o1)C1CCCCC1` [N-[(1S)-1-cyclohexyl-2-(methylamino)-2-oxoethyl]-5-(3-{[(cyclopropylcarbonyl)amino]methyl}phenyl)furan-2-carboxamide], the figure is 0.397 µM; as for `CNC(=O)[C@@H](NC(=O)c1ccc(-c2cccc(CNC(=O)c3ccco3)c2)o1)C1CCCCC1` [N-[(1S)-1-cyclohexyl-2-(methylamino)-2-oxoethyl]-5-(3-{[(furan-2-ylcarbonyl)amino]methyl}phenyl)furan-2-carboxamide], 0.075 µM. The same measure for `CNC(=O)[C@@H](NC(=O)c1ccc(-c2cccc(CNC(=O)NC(C)C)c2)o1)C1CCCCC1` [N-[(1S)-1-cyclohexyl-2-(methylamino)-2-oxoethyl]-5-(3-{[(propan-2-ylcarbamoyl)amino]methyl}phenyl)furan-2-carboxamide]: 0.205 µM; for `CCOc1ccc(-c2ccc(C(=O)N[C@H](C(=O)NC)C3CCCCC3)o2)cc1` [N-[(1S)-1-cyclohexyl-2-(methylamino)-2-oxoethyl]-5-(4-ethoxyphenyl)furan-2-carboxamide]: 0.27 µM. In turn, `CCc1ccc(-c2ccc(C(=O)N[C@H](C(=O)NC)C3CCCCC3)o2)cc1` [N-[(1S)-1-cyclohexyl-2-(methylamino)-2-oxoethyl]-5-(4-ethylphenyl)furan-2-carboxamide] displayed an IC50 of 0.315 µM. Compound `CNC(=O)[C@@H](NC(=O)c1ccc(-c2ccc(C)cc2)o1)C1CCCCC1` [N-[(1S)-1-cyclohexyl-2-(methylamino)-2-oxoethyl]-5-(4-methylphenyl)furan-2-carboxamide] came in with an IC50 of 0.29 µM. Compound `CNC(=O)[C@@H](NC(=O)c1ccc(-c2ccc(CNC(=O)C3CC3)cc2)o1)C1CCCCC1` [N-[(1S)-1-cyclohexyl-2-(methylamino)-2-oxoethyl]-5-(4-{[(cyclopropylcarbonyl)amino]methyl}phenyl)furan-2-carboxamide] yielded an IC50 of 0.423 µM. Consider `CCOc1ccc(-c2ccc(C(=O)N[C@H](C(=O)NC)C3CCCCC3)o2)nc1` [N-[(1S)-1-cyclohexyl-2-(methylamino)-2-oxoethyl]-5-(5-ethoxypyridin-2-yl)furan-2-carboxamide], for which half-maximal inhibition (IC50) required 0.032 µM. Consider `CNC(=O)[C@@H](NC(=O)c1ccc(-c2cccc(CNC(=O)c3ccoc3C)c2)o1)C1CCCCC1` [N-[(1S)-1-cyclohexyl-2-(methylamino)-2-oxoethyl]-5-[3-({[(2-methylfuran-3-yl)carbonyl]amino}methyl)phenyl]furan-2-carboxamide], for which the IC50 came out at 0.33 µM. Compound `CNC(=O)[C@@H](NC(=O)c1ccc(-c2cccc(CNC(=O)c3cc(C)c(C)s3)c2)o1)C1CCCCC1` [N-[(1S)-1-cyclohexyl-2-(methylamino)-2-oxoethyl]-5-[3-({[(4,5-dimethylthiophen-2-yl)carbonyl]amino}methyl)phenyl]furan-2-carboxamide] displayed an IC50 of 0.05 µM. `CNC(=O)[C@@H](NC(=O)c1ccc(-c2ccc(-c3cnn(C)c3)cc2)o1)C1CCCCC1` [N-[(1S)-1-cyclohexyl-2-(methylamino)-2-oxoethyl]-5-[4-(1-methyl-1H-pyrazol-4-yl)phenyl]furan-2-carboxamide] came in with an IC50 of 0.025 µM. `CNC(=O)[C@@H](NC(=O)c1ccc(-c2ccc(S(=O)(=O)NC)cc2)o1)C1CCCCC1` [N-[(1S)-1-cyclohexyl-2-(methylamino)-2-oxoethyl]-5-[4-(methylsulfamoyl)phenyl]furan-2-carboxamide]: the IC50 worked out at 0.48 µM. As for `CNC(=O)[C@@H](NC(=O)c1ccc(-c2ccc(SC)cc2)o1)C1CCCCC1` [N-[(1S)-1-cyclohexyl-2-(methylamino)-2-oxoethyl]-5-[4-(methylsulfanyl)phenyl]furan-2-carboxamide], half-maximal inhibition (IC50) required 0.175 µM. For the compound `CNC(=O)[C@@H](NC(=O)c1ccc(-c2ccc(OCc3ccn[nH]3)cn2)o1)C1CCCCC1` [N-[(1S)-1-cyclohexyl-2-(methylamino)-2-oxoethyl]-5-[5-(1H-pyrazol-5-ylmethoxy)pyridin-2-yl]furan-2-carboxamide], it took 0.006 µM to reach half-maximal inhibition (IC50). Compound `CNC(=O)[C@@H](NC(=O)c1ccc(-c2ccc(OCc3ccccn3)cn2)o1)C1CCCCC1` [N-[(1S)-1-cyclohexyl-2-(methylamino)-2-oxoethyl]-5-[5-(pyridin-2-ylmethoxy)pyridin-2-yl]furan-2-carboxamide] returned an IC50 of 0.021 µM. The same measure for `CNC(=O)[C@@H](NC(=O)c1ccc(-c2ccc(OCc3cccnc3)cn2)o1)C1CCCCC1` [N-[(1S)-1-cyclohexyl-2-(methylamino)-2-oxoethyl]-5-[5-(pyridin-3-ylmethoxy)pyridin-2-yl]furan-2-carboxamide]: 0.002 µM.

On to `CNC(=O)[C@@H](NC(=O)c1ccc(-c2ccc(OCc3ccncc3)cn2)o1)C1CCCCC1` [N-[(1S)-1-cyclohexyl-2-(methylamino)-2-oxoethyl]-5-[5-(pyridin-4-ylmethoxy)pyridin-2-yl]furan-2-carboxamide], for which inhibition was half-maximal at 0.001 µM (IC50). As for `CNC(=O)[C@@H](NC(=O)c1ccc(-c2ccc(NS(C)(=O)=O)cc2)o1)C1CCCCC1` [N-[(1S)-1-cyclohexyl-2-(methylamino)-2-oxoethyl]-5-{4-[(methylsulfonyl)amino]phenyl}furan-2-carboxamide], the figure is 0.455 µM; as for `CNC(=O)[C@@H](NC(=O)c1ccc(-c2ccc(OCc3c[nH]cn3)cn2)o1)C1CCCCC1` [N-[(1S)-1-cyclohexyl-2-(methylamino)-2-oxoethyl]-5-{5-(1H-imidazol-5-ylmethoxy)pyridin-2-yl]furan-2-carboxamide], 0.019 µM. For the compound `CNC(=O)[C@@H](NC(=O)c1ccc(-c2ccc(OCc3cc(C)n(C)n3)cn2)o1)C1CCCCC1` [N-[(1S)-1-cyclohexyl-2-(methylamino)-2-oxoethyl]-5-{5-[(1,5-dimethyl-1H-pyrazol-3-yl)methoxy]pyridin-2-yl}furan-2-carboxamide], the IC50 was determined as 0.004 µM.

Turning to `CNC(=O)[C@@H](NC(=O)c1ccc(-c2ccc(OCc3cn(C)cn3)cn2)o1)C1CCCCC1` [N-[(1S)-1-cyclohexyl-2-(methylamino)-2-oxoethyl]-5-{5-[(1-methyl-1H-imidazol-4-yl)methoxy]pyridin-2-yl}furan-2-carboxamide], the IC50 is 0.119 µM. As to `CNC(=O)[C@@H](NC(=O)c1ccc(-c2ccc(OCc3cncn3C)cn2)o1)C1CCCCC1` [N-[(1S)-1-cyclohexyl-2-(methylamino)-2-oxoethyl]-5-{5-[(1-methyl-1H-imidazol-5-yl)methoxy]pyridin-2-yl}furan-2-carboxamide], the IC50 was 0.018 µM.

Compound `CNC(=O)[C@@H](NC(=O)c1ccc(-c2ccc(OCc3ccn(C)n3)cn2)o1)C1CCCCC1` [N-[(1S)-1-cyclohexyl-2-(methylamino)-2-oxoethyl]-5-{5-[(1-methyl-1H-pyrazol-3-yl)methoxy]pyridin-2-yl}furan-2-carboxamide] gave an IC50 of 0.025 µM. The same measure for `CNC(=O)[C@@H](NC(=O)c1ccc(-c2ccc(OCc3ccnn3C)cn2)o1)C1CCCCC1` [N-[(1S)-1-cyclohexyl-2-(methylamino)-2-oxoethyl]-5-{5-[(1-methyl-1H-pyrazol-5-yl)methoxy]pyridin-2-yl}furan-2-carboxamide]: 0.006 µM. The compound `CNC(=O)[C@@H](NC(=O)c1ccc(-c2ccc(O[C@H](C)c3ccncc3)cn2)o1)C1CCCCC1` [N-[(1S)-1-cyclohexyl-2-(methylamino)-2-oxoethyl]-5-{5-[(1R)-1-(pyridin-4-yl)ethoxy]pyridin-2-yl}furan-2-carboxamide] gave an IC50 of 0.003 µM.
